Experimental data as given in patent publication US11927585B2, “Solvent-based inks and coatings for food contact applications” (SUN CHEMICAL CORPORATION, priority 2020, dated 2024).

Experiments:
[1] = Worst-case calculation, Application 1 yoghurt pot lid exposure scenario; conditions: 100% migration, 2.0 g/m^2 dry film
[2] = Specific migration limit (SML) from regulation or hazard assessment (TTC, VEGA QSAR, Cramer Class); conditions: for SML or Restriction (mg substance/kg food): source HA (internal hazard assessment), self-derived SML, EU Cube model; for SML (or restriction): Source of SML or restriction: HA (internal hazard assessment)
[3] = Worst-case calculation, Application 2 cheese packaging wrap exposure scenario; conditions: 100% migration, 2.0 g/m^2 dry film
[4] = Worst-case calculation (100% migration), standard EU Cube exposure model; conditions: 100% migration; for Worst-case calculation as a percentage of SML (or restriction), EU Cube: 2.0 g/m^2 dry film; for Worst Case Calculation of migration in EU Cube model (as a percentage of SML): dry coat weight 2.0 g/m^2
[5] = substance in ink SBDEV977 (Ex. 4A Yellow)
[6] = substance in ink SBDEV980 (Ex. 4B Red)

Row | Structure (SMILES) | SML or Restriction (mg substance/kg food) [2] | Worst-case calculation as a percentage of SML (or restriction), Application 1 ([1]; product SBDEV980) | Worst-case calculation as a percentage of SML (or restriction), Application 1 ([1]; product SBDEV1285) | Worst-case calculation as a percentage of SML (or restriction), Application 2 ([3]; product SBDEV980) | Worst-case calculation as a percentage of SML (or restriction), Application 2 ([3]; product SBDEV1285) | Worst-case calculation as a percentage of SML (or restriction), EU Cube ([4]; product SBDEV980) | Worst-case calculation as a percentage of SML (or restriction), EU Cube ([4]; product SBDEV1285) | Worst Case Calculation of migration in EU Cube model (as a percentage of SML) [4, 6] | SML (or restriction) [2] | other results
1 | O=C1NC(=O)c2ccccc21 [0000085-41-6, Phthalimide] | 0.09 mg substance/kg food |  |  |  |  |  |  |  |  | Worst-case calculation as a percentage of SML (or restriction), Application 1 ([1]; product SBDEV977): 377.6 percentage of SML (or restriction); Worst-case calculation as a percentage of SML (or restriction), Application 1 ([1]; product SBDEV1287): 373.7 percentage of SML (or restriction); Worst-case calculation as a percentage of SML (or restriction), Application 2 ([3]; product SBDEV977): 1382.4 percentage of SML (or restriction); Worst-case calculation as a percentage of SML (or restriction), Application 2 ([3]; product SBDEV1287): 1368.0 percentage of SML (or restriction); Worst-case calculation as a percentage of SML (or restriction), EU Cube ([4]; product SBDEV977): 960 percentage of SML (or restriction); Worst-case calculation as a percentage of SML (or restriction), EU Cube ([4]; product SBDEV1287): 950 percentage of SML (or restriction); Worst Case Calculation of migration in EU Cube model (as a percentage of SML) [4, 5]: 960 percentage of SML
2 | CCCC1OC(CCC)OC(CCC)O1 (stereo not shown) [0002396-43-2, 2,4,6-tripropyl-1,3,5-Trioxane] | 0.09 mg substance/kg food | 26.0 percentage of SML (or restriction) | 26.4 percentage of SML (or restriction) | 95.0 percentage of SML (or restriction) | 96.5 percentage of SML (or restriction) | 60 percentage of SML (or restriction) | 67 percentage of SML (or restriction) | 66 percentage of SML |  | Worst-case calculation as a percentage of SML (or restriction), Application 1 ([1]; product SBDEV976): 24.0 percentage of SML (or restriction); Worst-case calculation as a percentage of SML (or restriction), Application 1 ([1]; product SBDEV977): 26.4 percentage of SML (or restriction); Worst-case calculation as a percentage of SML (or restriction), Application 1 ([1]; product SBDEV1284): 26.0 percentage of SML (or restriction); Worst-case calculation as a percentage of SML (or restriction), Application 1 ([1]; product SBDEV1286): 24.0 percentage of SML (or restriction); Worst-case calculation as a percentage of SML (or restriction), Application 1 ([1]; product SBDEV1287): 26.7 percentage of SML (or restriction); Worst-case calculation as a percentage of SML (or restriction), Application 2 ([3]; product SBDEV976): 87.8 percentage of SML (or restriction); Worst-case calculation as a percentage of SML (or restriction), Application 2 ([3]; product SBDEV977): 96.5 percentage of SML (or restriction); Worst-case calculation as a percentage of SML (or restriction), Application 2 ([3]; product SBDEV1284): 95.0 percentage of SML (or restriction); Worst-case calculation as a percentage of SML (or restriction), Application 2 ([3]; product SBDEV1286): 87.8 percentage of SML (or restriction); Worst-case calculation as a percentage of SML (or restriction), Application 2 ([3]; product SBDEV1287): 97.9 percentage of SML (or restriction); Worst-case calculation as a percentage of SML (or restriction), EU Cube ([4]; product SBDEV976): 61 percentage of SML (or restriction); Worst-case calculation as a percentage of SML (or restriction), EU Cube ([4]; product SBDEV977): 67 percentage of SML (or restriction); Worst-case calculation as a percentage of SML (or restriction), EU Cube ([4]; product SBDEV1284): 66 percentage of SML (or restriction); Worst-case calculation as a percentage of SML (or restriction), EU Cube ([4]; product SBDEV1286): 61 percentage of SML (or restriction); Worst-case calculation as a percentage of SML (or restriction), EU Cube ([4]; product SBDEV1287): 68 percentage of SML (or restriction); Worst Case Calculation of migration in EU Cube model (as a percentage of SML) ([4]; substance in ink SBDEV976 (Ex. 4C Cyan)): 61 percentage of SML; Worst Case Calculation of migration in EU Cube model (as a percentage of SML) [4, 5]: 67 percentage of SML; Worst Case Calculation of migration in EU Cube model (as a percentage of SML) ([4]; substance in ink SBDEV979 (Ex. 4D Black)): 65 percentage of SML
3 | N#Cc1ccc(-c2ccccc2)cc1 [4-Phenylbenzonitrile] |  |  |  |  |  |  |  |  | 0.09 mg substance/kg food | 
4 | N#Cc1ccc(-c2ccccc2)cc1 [0002920-38-9, 4-Phenylbenzonitrile] | 0.09 mg substance/kg food | 2.0 percentage of SML (or restriction) | 2.0 percentage of SML (or restriction) | 7.2 percentage of SML (or restriction) | 7.2 percentage of SML (or restriction) | 5 percentage of SML (or restriction) | 5 percentage of SML (or restriction) | 5 percentage of SML |  | 
5 | O=C(O)c1ccc(-c2ccccc2)cc1 [0000092-92-2, 4-Phenylbenzoic Acid] | 0.09 mg substance/kg food | 2.8 percentage of SML (or restriction) | 2.8 percentage of SML (or restriction) | 10.1 percentage of SML (or restriction) | 10.1 percentage of SML (or restriction) | 7 percentage of SML (or restriction) | 7 percentage of SML (or restriction) | 7 percentage of SML |  | 
6 | CCCC1OC(CCC)OC(CCC)O1 (stereo not shown) [2,4,6-tripropyl-1,3,5-Trioxane] |  |  |  |  |  |  |  |  | 0.09 mg substance/kg food | 
7 | c1ccc(-c2ccc(-c3nc(-c4ccc(-c5ccccc5)cc4)nc(-c4ccc(-c5ccccc5)cc4)n3)cc2)cc1 [0031274-51-8, 1,3,5-Triazine, 2,4,6-Tris([1,1′-Biphenyl]-4-Yl)-] | 5 mg substance/kg food | 0.1 percentage of SML (or restriction) | 0.1 percentage of SML (or restriction) | 0.4 percentage of SML (or restriction) | 0.4 percentage of SML (or restriction) | 0.3 percentage of SML (or restriction) | 0.3 percentage of SML (or restriction) | 0.3 percentage of SML |  | 
8 | NC(=O)c1ccc(-c2ccccc2)cc1 [0003815-20-1, 4-Phenylbenzamide] | 0.09 mg substance/kg food | 90.5 percentage of SML (or restriction) | 90.5 percentage of SML (or restriction) | 331.2 percentage of SML (or restriction) | 331.2 percentage of SML (or restriction) | 230 percentage of SML (or restriction) | 230 percentage of SML (or restriction) | 230 percentage of SML |  | 
9 | O=Cc1ccc(-c2ccccc2)cc1 [4-Phenylbenzaldehyde] |  |  |  |  |  |  |  |  | 0.09 mg substance/kg food | 
10 | CCCCCCCC/C=C\CCCCCCCC(=O)OCC [Ethyl Oleate] |  |  |  |  |  |  |  |  | 0.09 mg substance/kg food | 
